Like-named read-outs stand apart in the source and are kept apart here. One block for each molecule: values may come before it.
Legend:
[1] = molecular target: Beta Secretase enzyme (BACE) (Homo sapiens, UniProt P56817); test: In vitro enzymatic BACE FRET (fluorescence resonance energy transfer) assay; format: biochemical; settings: average IC50, enzyme assay; read-out: BACE 1 FRET assay
In short: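 Acetate buffer (0.05 M, pH 4.2), 10% DMSO final, 100 uM nonionic detergent genapol. Substrate addition (50 nM FRET peptide) initiates; one-hour incubation; Tris raises pH to neutrality before fluorescence measurement.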

[2] = test system: Aβ40 in conditioned medium of cells stably expressing Amyloid Precursor Protein (APP); test: In vitro BACE cell-based assay (Aβ40 in conditioned medium, sandwich ELISA); settings: read-out: HEK cell assay
In short: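 Step two: 10-point compound titration added, starting 100 μM or 10 μM, 0.1% DMSO. Step three: medium Aβ40 measured by ELISA, capture 3 h and detection 2 h at 4° C, TRF read.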

[3] = Homo sapiens, HEK293, average IC50
[4] = Homo sapiens, HEK293, average IC50, HEK cells

Sequence of Beta Secretase enzyme (BACE) (P56817 46-501, species assumed): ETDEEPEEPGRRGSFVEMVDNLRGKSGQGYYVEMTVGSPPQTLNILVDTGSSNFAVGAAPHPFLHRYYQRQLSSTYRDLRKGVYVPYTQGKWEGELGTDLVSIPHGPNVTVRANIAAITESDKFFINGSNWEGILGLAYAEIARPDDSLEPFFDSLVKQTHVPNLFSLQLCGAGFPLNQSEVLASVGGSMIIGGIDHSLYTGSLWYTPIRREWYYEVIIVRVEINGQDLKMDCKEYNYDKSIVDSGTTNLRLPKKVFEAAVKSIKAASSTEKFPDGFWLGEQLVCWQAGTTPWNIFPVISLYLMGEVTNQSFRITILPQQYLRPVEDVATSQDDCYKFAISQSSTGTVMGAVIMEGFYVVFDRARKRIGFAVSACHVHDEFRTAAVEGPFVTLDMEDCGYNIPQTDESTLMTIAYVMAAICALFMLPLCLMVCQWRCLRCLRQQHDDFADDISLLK

IC50 [1]: 102 nM
IC50 [2, 4]: 640 nM
Molecule: NC1=N[C@@]2(CO1)c1cc(-c3cnccc3F)ccc1Oc1cnc(Cl)cc12 [Example 390, (5S)-3-chloro-7-(4-fluoro-3-pyridinyl)spiro[chromeno[2,3-c]pyridine-5,4′-[1,3]oxazol]-2′-amine]

IC50 [1]: 6.6 nM
IC50 [2, 4]: 358 nM
Molecule: NC1=N[C@@]2(CO1)c1cc(-c3cccnc3F)ccc1Oc1c2cc(Cl)nc1F [Example 488, (5S)-3-chloro-1-fluoro-7-(2-fluoro-3-pyridinyl)spiro[chromeno[2,3-c]pyridine-5,4′-[1,3]oxazol]-2′-amine]

IC50 [1]: 2.5 nM
IC50 [2, 3]: 53 nM
Molecule: CC1(C#Cc2cncc(-c3ccc4c(c3)[C@@]3(COC(N)=N3)c3cc(C5=CCCOC5)ncc3O4)c2)COC1 [Example 813, (5S)-3-(5,6-dihydro-2H-pyran-3-yl)-7-(5-((3-methyl-3-oxetanyl)ethynyl)-3-pyridinyl)spiro[chromeno[2,3-c]pyridine-5,4′-[1,3]oxazol]-2′-amine]

IC50 [1]: 61.4 nM
IC50 [2, 3]: 194 nM
Molecule: COc1cc(F)c2c(c1)[C@]1(COC(N)=N1)c1cc(-c3cncc(C(F)(F)F)c3)ccc1O2 [Example 1073, (4S)-4′-fluoro-2′-methoxy-7′-(5-(trifluoromethyl)-3-pyridinyl)spiro[1,3-oxazole-4,9′-xanthen]-2-amine]

IC50 [1]: 2.9 nM
IC50 [2, 3]: 11.6 nM
Molecule: CC1(C#Cc2cnc3c(c2)[C@]2(COC(N)=N2)c2cc(-c4cncc(C(F)(F)F)c4)ccc2O3)COC1 [Example 187, (5S)-3-((3-methyl-3-oxetanyl)ethynyl)-7-(5-(trifluoromethyl)-3-pyridinyl)spiro[chromeno[2,3-b]pyridine-5,4′-[1,3]oxazol]-2′-amine]

IC50 [1]: 5560 nM
IC50 [2, 3]: ≥ 10000 nM
Molecule: COc1cc2c(c(F)c1F)Oc1ccc(-c3cccnc3F)cc1[C@]21COC(N)=N1 [Example 1004, (4R)-3′,4′-difluoro-7′-(2-fluoro-3-pyridinyl)-2′-methoxyspiro[1,3-oxazole-4,9′-xanthen]-2-amine]

IC50 [1]: 0.4 nM
IC50 [2, 4]: 3 nM
Molecule: CC#Cc1cncc(-c2ccc3c(c2)[C@@]2(COC(N)=N2)c2cc(OCC4(C)COC4)cc(F)c2O3)c1 [Example 949, (4S)-4′-fluoro-2′-((3-methyl-3-oxetanyl)methoxy)-7′-(5-(1-propyn-1-yl)-3-pyridinyl)spiro[1,3-oxazole-4,9′-xanthen]-2-amine]

IC50 [1]: 604 nM
IC50 [2, 4]: 2200 nM
Molecule: NC1=N[C@@]2(CO1)c1cc(-c3cncc(N4CC[C@H](F)C4)c3)ccc1Oc1cnc(Cl)cc12 [Example 428, (5S)-3-chloro-7-(5-((3S)-3-fluoro-1-pyrrolidinyl)-3-pyridinyl)spiro[chromeno[2,3-c]pyridine-5,4′-[1,3]oxazol]-2′-amine]

IC50 [1]: 16.5 nM
IC50 [2, 3]: 851 nM
Molecule: Cc1ccnn1-c1cnc2c(c1)[C@]1(COC(N)=N1)c1cc(-c3cccnc3F)ccc1O2 [Example 1020, (5S)-7-(2-fluoro-3-pyridinyl)-3-(5-methyl-1H-pyrazol-1-yl)spiro[chromeno[2,3-b]pyridine-5,4′-[1,3]oxazol]-2′-amine]

IC50 [1]: 68.2 nM
IC50 [2, 4]: 228 nM
Molecule: COC(C)(C)C#Cc1cnc2c(c1)[C@@]1(COC(N)=N1)c1cc(-c3cncnc3)c(F)cc1O2 [Example 644, (5R)-8-fluoro-3-(3-methoxy-3-methyl-1-butyn-1-yl)-7-(5-pyrimidinyl)spiro[chromeno[2,3-b]pyridine-5,4′-[1,3]oxazol]-2′-amine]

IC50 [1]: 20.1 nM
IC50 [2, 4]: 311 nM
Molecule: COc1ncccc1-c1ccc2c(c1)[C@@]1(COC(N)=N1)c1cc(/C=C/C(C)(C)C)ncc1O2 [Example 408, (5S)-3-((1E)-3,3-dimethyl-1-buten-1-yl)-7-(2-methoxy-3-pyridinyl)spiro[chromeno[2,3-c]pyridine-5,4′-[1,3]oxazol]-2′-amine]

IC50 [1]: 5.2 nM
IC50 [2, 4]: 583 nM
Molecule: COc1cc(-c2cc3c(cn2)Oc2ccc(-c4cccc(Cl)c4)cc2[C@@]32COC(N)=N2)ccc1F [Example 538, (5S)-7-(3-chlorophenyl)-3-(4-fluoro-3-methoxyphenyl)spiro[chromeno[2,3-c]pyridine-5,4′-[1,3]oxazol]-2′-amine]

IC50 [1]: 3.8 nM
IC50 [2, 4]: 97 nM
Molecule: COc1ccc(-c2cnc3c(c2)[C@]2(CSC(N)=N2)c2cc(C#CC4(C)COC4)ccc2O3)cn1 [Example 941, (5S)-3-(6-methoxy-3-pyridinyl)-7-((3-methyl-3-oxetanyl)ethynyl)spiro[chromeno[2,3-b]pyridine-5,4′-[1,3]thiazol]-2′-amine]

IC50 [1]: 2.1 nM
IC50 [2, 4]: 23.2 nM
Molecule: Cc1cnc(F)c(-c2ccc3c(c2)[C@@]2(COC(N)=N2)c2cc(-c4ccnc(F)c4)ncc2O3)c1 [Example 422, (5S)-7-(2-fluoro-5-methyl-3-pyridinyl)-3-(2-fluoro-4-pyridinyl)spiro[chromeno[2,3-c]pyridine-5,4′-[1,3]oxazol]-2′-amine]

IC50 [1]: 0.3 nM
IC50 [2, 4]: 11 nM
Molecule: NC1=N[C@@]2(CO1)c1cc(-c3cncc(F)c3)ccc1Oc1c2cc(-c2cccnc2)nc1F [Example 630, (5S)-1-fluoro-7-(5-fluoro-3-pyridinyl)-3-(3-pyridinyl)spiro[chromeno[2,3-c]pyridine-5,4′-[1,3]oxazol]-2′-amine]

IC50 [1]: 856 nM
IC50 [2, 4]: 2230 nM
Molecule: NC1=N[C@@]2(CO1)c1cc(-c3ccncc3F)ccc1Oc1cnc(-c3cccnc3F)cc12 [Example 574, (5S)-3-(2-fluoro-3-pyridinyl)-7-(3-fluoro-4-pyridinyl)spiro[chromeno[2,3-c]pyridine-5,4′-[1,3]oxazol]-2′-amine]

IC50 [1]: 5.5 nM
IC50 [2, 3]: 460 nM
Molecule: CC1(C#Cc2cncc(-c3ccc4c(c3)[C@@]3(COC(N)=N3)c3cc(-c5ccnc(F)c5)ncc3O4)c2)COC1 [Example 812, (5S)-3-(2-fluoro-4-pyridinyl)-7-(5-((3-methyl-3-oxetanyl)ethynyl)-3-pyridinyl)spiro[chromeno[2,3-c]pyridine-5,4′-[1,3]oxazol]-2′-amine]

The remaining lines, values behind:

Molecule: Cc1ccc(-c2ccc3c(c2)[C@@]2(COC(N)=N2)c2cc(C4=CCOCC4)ncc2O3)c(F)n1 [Example 253, (5S)-3-(3,6-dihydro-2H-pyran-4-yl)-7-(2-fluoro-6-methyl-3-pyridinyl)spiro[chromeno[2,3-c]pyridine-5,4′-[1,3]oxazol]-2′-amine]
IC50 [1]: 36 nM
IC50 [2, 3]: 320 nM

Molecule: COc1ccc2c(c1)[C@@]1(COC(N)=N1)c1cc(N3CCN(C)C(C)(C)C3)cc(F)c1O2 [Example 532, (4S)-4′-fluoro-7′-methoxy-2′-(3,3,4-trimethyl-1-piperazinyl)spiro[1,3-oxazole-4,9′-xanthen]-2-amine]
IC50 [1]: 2370 nM
IC50 [2, 4]: 169 nM

Molecule: NC1=N[C@@]2(CO1)c1cc(-c3cccnc3F)ccc1Oc1c2cc(N2CCC(F)(F)C2)nc1F [Example 918, (S)-3-(3,3-difluoropyrrolidin-1-yl)-1-fluoro-7-(2-fluoropyridin-3-yl)-5′-H-spiro[chromeno[2,3-c]pyridine-5,4′-oxazol]-2′-amine]
IC50 [1]: 0.2 nM
IC50 [2, 4]: 4 nM

Molecule: Cc1ccc(-c2cnc3c(c2)[C@]2(CSC(N)=N2)c2cc(-c4cccnc4)ccc2O3)cn1 [Example 958, (5S)-3-(6-methyl-3-pyridinyl)-7-(3-pyridinyl)spiro[chromeno[2,3-b]pyridine-5,4′-[1,3]thiazol]-2′-amine]
IC50 [1]: 1.5 nM
IC50 [2, 4]: 19 nM

Molecule: Cc1ccc(-c2cc(F)c3c(c2)[C@]2(COC(N)=N2)c2cc(-c4cccnc4F)ccc2O3)nn1 [Example 114, (S)-4′-fluoro-7′-(2-fluoropyridin-3-yl)-2′-(6-methylpyridazin-3-yl)-5H-spiro[oxazole-4,9′-xanthen]-2-amine]
IC50 [1]: 0.5 nM
IC50 [2, 3]: 4 nM

Molecule: CC1(C#Cc2cc3c(cn2)Oc2ccc(-c4cccc(Cl)c4)cc2[C@@]32COC(N)=N2)COC1 [Example 157, (5S)-7-(3-chlorophenyl)-3-((3-methyl-3-oxetanyl)ethynyl)spiro[chromeno[2,3-c]pyridine-5,4′-[1,3]oxazol]-2′-amine]
IC50 [1]: 0.8 nM
IC50 [2, 3]: 30.2 nM

Molecule: (5R)-7-(2,4-difluoro-3-pyridinyl)-3-(2-fluoro-4-pyridinyl)spiro[chromeno[2,3-c]pyridine-5,4′-[1,3]thiazol]-2′-amine, (5S)-7-(2,4-difluoro-3-pyridinyl)-3-(2-fluoro-4-pyridinyl)spiro[chromeno[2,3-c]pyridine-5,4′-[1,3]thiazol]-2′-amine [Example 1019]
IC50 [1]: 0.7 nM
IC50 ([2]; average IC50): 33 nM

Molecule: COc1cc2c(c(F)c1F)Oc1ccc(Br)cc1[C@]21COC(N)=N1 [Example 1002, (4R)-7′-bromo-3′,4′-difluoro-2′-methoxyspiro[1,3-oxazole-4,9′-xanthen]-2-amine]
IC50 [1]: 18100 nM
IC50 [2, 3]: ≥ 10000 nM

Molecule: NC1=N[C@@]2(CS1)c1cc(-c3cccnc3)ccc1Oc1ncc(C3=CCCOC3)cc12 [Example 959, (5S)-3-(5,6-dihydro-2H-pyran-3-yl)-7-(3-pyridinyl)spiro[chromeno[2,3-b]pyridine-5,4′-[1,3]thiazol]-2′-amine]
IC50 [1]: 1 nM
IC50 [2, 4]: 13 nM

Molecule: COc1ncccc1-c1ccc2c(c1)[C@@]1(COC(N)=N1)c1cc(N3CCC(F)(F)CC3)nc(OC)c1O2 [Example 852, (5S)-3-(4,4-difluoro-1-piperidinyl)-1-methoxy-7-(2-methoxy-3-pyridinyl)spiro[chromeno[2,3-c]pyridine-5,4′-[1,3]oxazol]-2′-amine]
IC50 [1]: 92.6 nM
IC50 [2, 4]: 609 nM

Molecule: C[C@@](C#Cc1cnc2c(c1)[C@]1(COC(N)=N1)c1cc(-c3cccnc3F)ccc1O2)(CO)CCl (single isomer, unassigned) [Example 1014]
IC50 [1]: 2.2 nM
IC50 [2]: 21 nM

Molecule: NC1=N[C@@]2(CO1)c1cc(-c3cccc(Cl)c3)ccc1Oc1cnc(C3CCOCC3)cc12 [Example 241, (5S)-7-(3-chlorophenyl)-3-(tetrahydro-2H-pyran-4-yl)spiro[chromeno[2,3-c]pyridine-5,4′-[1,3]oxazol]-2′-amine]
IC50 [1]: 3.4 nM
IC50 [2, 3]: 62.9 nM

Source: US8883782B2, “Spiro-tetracyclic ring compounds as beta-secretase modulators and methods of use” (Amgen Inc., priority 2010, dated 2014)
